The nature of the data set: Foam height test, Standard Test Method for Foaming Properties of Surface-Active Agents (ASTM 1173-07). The class given is physicochemical. Particulars: 49° C.; for Foam height at time t = 0: t = 0 min; for Foam height at time t = 1: t = 1 min; for Foam height at time t = 2: t = 2 min; for Foam height at time t = 3: t = 3 min; for Foam height at time t = 4: t = 4 min; for Foam height at time t = 5: t = 5 min. An excerpt:
The Standard Test Method for Foaming Properties of Surface-Active Agents (ASTM 1173-07) for 0.1 wt % and 1.0 wt % was used to determine the foaming properties of the amphoteric compounds of the formula 1 described herein. This method generates foam under low-agitation conditions and is generally used for moderate- and high-foam surfactants. This test gathers data on initial foam height and foam decay. Foam decay provides information on foam stability.
The apparatus for carrying out this test includes a jacketed column and a pipet. The jacketed column serves as a receiver, while the pipet delivers the surface-active solution.
Solutions of each surface-active agent to be measured were prepared in borosilicate glass jars a day ahead of time, using ambient temperature ingredients, and were slowly rolled overnight to homogenize. The solutions were then removed from the rollers and equilibrated in a constant temperature bath (49° C.+/−1° C.) for at least 1 hour before measurement. The solution of the amphoteric compound to be tested was added to the receiver (50 mL) and to the pipet (200 mL). The pipet was positioned above the receiver and opened. As the solution fell and made contact with the solution in the receiver, foam was generated. When the pipet was empty, the time was noted and an initial foam height was recorded. The foam height was recorded each minute for five minutes. Exact size specifications for the glassware can be found in ASTM 1173-07. The foam height results for each amphoteric compound 1 and representative standards are listed below in Tables 1 (0.1% concentration) and 2 (1% concentration).

Consider `CCCCCCCCCCCCOC(=O)CCC[N+](C)(C)CC(O)CS(=O)(=O)[O-]` (stereo not drawn) [Example 4, 3-(3-(Lauryloxycarbonylpropyl)dimethylammonio)-2-hydroxypropanesulfonate], for which, where the note is “1 g/L (0.1 weight %)”, the “Foam height at time t = 0” value turned out to be 142 mm, the “Foam height at time t = 1” value was 139 mm, the “Foam height at time t = 2” value stood at 135 mm and the “Foam height at time t = 3” value came to 132 mm. For the same compound, under “1 g/L (0.1 weight %)”, the “Foam height at time t = 4” value amounted to 129 mm and the “Foam height at time t = 5” value worked out at 127 mm. For the same compound, where the note is “10 g/L (1.0 weight %)”, the “Foam height at time t = 0” value is reported as 173 mm, the “Foam height at time t = 1” value was 170 mm, the “Foam height at time t = 2” value was 167 mm and the “Foam height at time t = 3” value is given as 162 mm. Where the note is “10 g/L (1.0 weight %)”, the “Foam height at time t = 4” value is given as 158 mm and the “Foam height at time t = 5” value is recorded as 154 mm.

For `CCCCCCCCCCCCOC(=O)CCCC[N+](C)(C)CC(O)CS(=O)(=O)[O-]` (stereo not drawn) [Example 9, 3-(4-(Lauryloxycarbonylbutyl)dimethylammonio)-2-hydroxypropanesulfonate], under “1 g/L (0.1 weight %)”, the “Foam height at time t = 0” value is recorded as 185 mm, the “Foam height at time t = 1” value is listed as 175 mm, the “Foam height at time t = 2” value is on record as 173 mm and the “Foam height at time t = 3” value was determined as 170 mm. Besides, under “1 g/L (0.1 weight %)”, the “Foam height at time t = 4” value was 170 mm and the “Foam height at time t = 5” value amounted to 170 mm. For the setting “10 g/L (1.0 weight %)”, the “Foam height at time t = 0” value was determined as 195 mm, the “Foam height at time t = 1” value is 190 mm, the “Foam height at time t = 2” value is recorded as 180 mm and the “Foam height at time t = 3” value is 180 mm. Further, for the setting “10 g/L (1.0 weight %)”, the “Foam height at time t = 4” value is 180 mm and the “Foam height at time t = 5” value was 180 mm.

As for “(4-Lauryloxycarbonylbutyl)dimethylammonioacetate [Example 8]”, under “10 g/L (1.0 weight %)”, the “Foam height at time t = 0” value is 185 mm, the “Foam height at time t = 1” value was determined as 175 mm, the “Foam height at time t = 2” value worked out at 170 mm and the “Foam height at time t = 3” value was 170 mm. Besides, under “10 g/L (1.0 weight %)”, the “Foam height at time t = 4” value is 170 mm and the “Foam height at time t = 5” value was determined as 165 mm.

For the compound “(5-Laurylamino-5-oxopentyl)dimethylammonioacetate [Example 20]”, under “1 g/L (0.1 weight %)”, the “Foam height at time t = 0” value was found to be 180 mm, the “Foam height at time t = 1” value is on record as 175 mm, the “Foam height at time t = 2” value amounted to 170 mm and the “Foam height at time t = 3” value was found to be 170 mm. Besides, for the setting “1 g/L (0.1 weight %)”, the “Foam height at time t = 4” value is reported as 170 mm and the “Foam height at time t = 5” value is reported as 170 mm. Further, for the setting “10 g/L (1.0 weight %)”, the “Foam height at time t = 0” value came out at 175 mm, the “Foam height at time t = 1” value is reported as 170 mm, the “Foam height at time t = 2” value was found to be 170 mm and the “Foam height at time t = 3” value is given as 170 mm. Where the note is “10 g/L (1.0 weight %)”, the “Foam height at time t = 4” value is given as 165 mm and the “Foam height at time t = 5” value is reported as 160 mm.

Values taken from US12516019B2, “Amphoteric compounds” (Eastman Chemical Company, priority 2015, dated 2026).
